{"source": "BindingDB's records for patent US20230295166", "about": "(Antengene Discovery, 2023)", "molecular_target": "Serine/threonine-protein kinase ATR (Homo sapiens, UniProt Q13535)", "sequence (Q13535 whole entry)": "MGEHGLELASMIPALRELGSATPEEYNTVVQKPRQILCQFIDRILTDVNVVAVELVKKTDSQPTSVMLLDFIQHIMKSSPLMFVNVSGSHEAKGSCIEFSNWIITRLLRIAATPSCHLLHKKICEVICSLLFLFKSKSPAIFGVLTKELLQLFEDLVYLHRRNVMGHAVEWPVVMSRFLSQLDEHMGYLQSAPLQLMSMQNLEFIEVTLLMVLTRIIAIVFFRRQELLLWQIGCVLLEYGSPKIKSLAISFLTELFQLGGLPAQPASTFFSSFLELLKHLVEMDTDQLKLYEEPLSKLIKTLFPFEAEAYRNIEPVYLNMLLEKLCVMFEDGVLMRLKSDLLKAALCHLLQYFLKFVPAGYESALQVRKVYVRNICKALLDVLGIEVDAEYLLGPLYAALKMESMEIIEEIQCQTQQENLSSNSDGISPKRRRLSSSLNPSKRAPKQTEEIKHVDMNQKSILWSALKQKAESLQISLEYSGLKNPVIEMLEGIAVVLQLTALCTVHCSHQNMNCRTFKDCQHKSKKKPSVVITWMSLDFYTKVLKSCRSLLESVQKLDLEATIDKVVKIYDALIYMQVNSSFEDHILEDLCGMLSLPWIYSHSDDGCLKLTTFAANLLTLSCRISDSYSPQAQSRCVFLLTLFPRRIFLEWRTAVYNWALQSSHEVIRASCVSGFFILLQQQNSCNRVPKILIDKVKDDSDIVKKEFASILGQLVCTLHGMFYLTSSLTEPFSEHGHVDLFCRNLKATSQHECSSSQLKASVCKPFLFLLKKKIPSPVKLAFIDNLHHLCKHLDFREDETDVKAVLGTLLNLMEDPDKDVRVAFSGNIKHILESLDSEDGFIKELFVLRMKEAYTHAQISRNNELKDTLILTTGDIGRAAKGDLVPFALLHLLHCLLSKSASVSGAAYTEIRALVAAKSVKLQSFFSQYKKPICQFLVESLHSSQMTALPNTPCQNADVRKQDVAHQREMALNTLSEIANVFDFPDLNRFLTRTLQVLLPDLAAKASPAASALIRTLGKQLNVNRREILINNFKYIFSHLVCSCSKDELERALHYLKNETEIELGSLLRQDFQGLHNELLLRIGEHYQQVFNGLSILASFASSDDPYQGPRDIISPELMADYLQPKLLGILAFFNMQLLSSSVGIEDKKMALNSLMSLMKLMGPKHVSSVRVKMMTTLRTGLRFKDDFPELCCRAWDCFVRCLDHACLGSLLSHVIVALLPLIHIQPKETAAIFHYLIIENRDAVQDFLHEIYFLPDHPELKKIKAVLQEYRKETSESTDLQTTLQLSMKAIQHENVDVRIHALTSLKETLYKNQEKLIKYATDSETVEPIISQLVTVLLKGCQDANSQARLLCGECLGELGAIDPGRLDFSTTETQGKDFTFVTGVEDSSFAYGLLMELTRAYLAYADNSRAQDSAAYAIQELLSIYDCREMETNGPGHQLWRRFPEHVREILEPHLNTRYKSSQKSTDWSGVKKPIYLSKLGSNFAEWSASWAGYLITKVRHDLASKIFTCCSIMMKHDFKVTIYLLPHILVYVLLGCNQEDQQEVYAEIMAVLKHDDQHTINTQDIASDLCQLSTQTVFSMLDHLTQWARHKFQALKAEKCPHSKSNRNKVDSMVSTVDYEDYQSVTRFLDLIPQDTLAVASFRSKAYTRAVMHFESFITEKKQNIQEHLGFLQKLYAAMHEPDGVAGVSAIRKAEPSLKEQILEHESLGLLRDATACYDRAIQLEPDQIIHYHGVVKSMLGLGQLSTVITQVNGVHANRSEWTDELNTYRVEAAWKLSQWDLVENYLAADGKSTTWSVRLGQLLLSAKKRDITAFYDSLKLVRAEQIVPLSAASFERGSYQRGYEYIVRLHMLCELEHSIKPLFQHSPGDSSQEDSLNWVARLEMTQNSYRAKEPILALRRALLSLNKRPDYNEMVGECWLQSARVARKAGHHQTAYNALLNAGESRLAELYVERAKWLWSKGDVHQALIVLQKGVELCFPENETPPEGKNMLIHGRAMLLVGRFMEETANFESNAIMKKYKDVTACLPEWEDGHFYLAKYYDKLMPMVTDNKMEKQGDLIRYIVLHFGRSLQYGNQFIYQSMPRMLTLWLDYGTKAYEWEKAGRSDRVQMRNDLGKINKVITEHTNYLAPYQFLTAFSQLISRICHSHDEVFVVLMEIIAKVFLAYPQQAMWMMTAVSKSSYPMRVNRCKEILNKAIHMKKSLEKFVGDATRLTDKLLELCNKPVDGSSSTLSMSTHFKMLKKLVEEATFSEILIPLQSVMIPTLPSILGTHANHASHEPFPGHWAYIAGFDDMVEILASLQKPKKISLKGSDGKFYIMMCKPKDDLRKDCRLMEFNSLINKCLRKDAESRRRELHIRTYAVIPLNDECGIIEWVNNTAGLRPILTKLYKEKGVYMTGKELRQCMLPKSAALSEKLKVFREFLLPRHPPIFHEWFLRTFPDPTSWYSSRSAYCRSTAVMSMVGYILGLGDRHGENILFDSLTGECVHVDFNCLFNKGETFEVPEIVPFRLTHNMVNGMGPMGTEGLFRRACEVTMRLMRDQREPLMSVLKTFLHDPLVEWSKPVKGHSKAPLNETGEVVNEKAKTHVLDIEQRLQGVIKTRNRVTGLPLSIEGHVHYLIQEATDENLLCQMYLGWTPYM", "test": "ATR Inhibition Assay", "experimental": "Detection of ATR kinase activity utilized the Mobility shift assay to measure the phosphorylation of the substrate protein FAM-RAD17 (GL, Cat. No. 514318, Lot. No. P19042-MJ524315). The assay was developed and conducted at Chempartner. All the test compounds were dissolved in 100% DMSO at concentration of 20 mM, then prepare compounds and conducted the assay as follows: 1) Transfer […] 20 mM compound to 40 μl of 100% DMSO in a 96-well plate.2) Serially dilute the compound by transferring 20 μl to 60 μl of 100% DMSO in the next well and so forth for a total of 10 concentrations.3) Add 100 μl of 100% DMSO to two empty wells for no compound control and no enzyme control in the same 96-well plate. Mark the plate as source plate.4) Transfer 40 μl of compound from source plate to a new 384-well plate as the intermediate plate.5) Transfer 60 nl compounds to assay plate by Echo.6) Add ATR kinase (Eurofins, Cat. No. 14-953, Lot. No. D14 JP007N) into Kinase base buffer (50 mM HEPES, pH 7.5; 0.0015% Brij-35; 0.01% Triton) to prepare 2 enzyme solution, then add 10 μl of 2 enzyme solution to each well of the 384-well assay plate, incubate at room temperature for 10 min.7) Add FAM-RAD17 and ATP (Sigma, Cat. No. A7699-1G, CAS No. 987-65-5) in the kinase base buffer to prepare 2 peptide solution, then add 10 μl to the assay plate.8) Incubate at 28 C. for specified period of time. […]", "data": [{"smiles": "C[C@@H]1COCCN1c1cc(-c2ccnn2C)c2c(Cl)nc(-c3ccn[nH]3)n2n1", "note": "[US20230295166, Compound 61]", "values": [{"measurement": "IC50", "result": "< 100", "unit": "nM"}]}, {"smiles": "Cc1cc(-c2nsc3c(N4CCCCS4(=O)=O)cc(N4CCOC[C@H]4C)nc23)[nH]n1", "note": "[US20230295166, Compound 82]", "values": [{"measurement": "IC50", "result": "< 100", "unit": "nM"}]}]}
